Measured values reported in publication PMC9078525, “Inhibitory effects of garcinone E on fatty acid synthase” (RSC Advances, 2018).
pIC50, pKi: −log10 of the molar value. Read-outs that look alike come from different tables or passages of the source. Values belong to the compound of their own block, whether it stands above or below them.

Legend:
FAS = conditions: cited from earlier work
[1] = target: T1, chicken FAS (overall reaction) (Gallus gallus, UniProt P12276); test: Fast-binding inhibition of FAS overall reaction (NADPH absorption at 340 nm); format: biochemical; conditions: fast-binding reversible inhibition, 37 °C; read-out: IC50 (half-inhibitory concentration), overall reaction of FAS
T1 construct: tissue Huadu Broiler Corporation, Beijing; host or cells: chicken liver
T1 sequence (P12276 whole entry): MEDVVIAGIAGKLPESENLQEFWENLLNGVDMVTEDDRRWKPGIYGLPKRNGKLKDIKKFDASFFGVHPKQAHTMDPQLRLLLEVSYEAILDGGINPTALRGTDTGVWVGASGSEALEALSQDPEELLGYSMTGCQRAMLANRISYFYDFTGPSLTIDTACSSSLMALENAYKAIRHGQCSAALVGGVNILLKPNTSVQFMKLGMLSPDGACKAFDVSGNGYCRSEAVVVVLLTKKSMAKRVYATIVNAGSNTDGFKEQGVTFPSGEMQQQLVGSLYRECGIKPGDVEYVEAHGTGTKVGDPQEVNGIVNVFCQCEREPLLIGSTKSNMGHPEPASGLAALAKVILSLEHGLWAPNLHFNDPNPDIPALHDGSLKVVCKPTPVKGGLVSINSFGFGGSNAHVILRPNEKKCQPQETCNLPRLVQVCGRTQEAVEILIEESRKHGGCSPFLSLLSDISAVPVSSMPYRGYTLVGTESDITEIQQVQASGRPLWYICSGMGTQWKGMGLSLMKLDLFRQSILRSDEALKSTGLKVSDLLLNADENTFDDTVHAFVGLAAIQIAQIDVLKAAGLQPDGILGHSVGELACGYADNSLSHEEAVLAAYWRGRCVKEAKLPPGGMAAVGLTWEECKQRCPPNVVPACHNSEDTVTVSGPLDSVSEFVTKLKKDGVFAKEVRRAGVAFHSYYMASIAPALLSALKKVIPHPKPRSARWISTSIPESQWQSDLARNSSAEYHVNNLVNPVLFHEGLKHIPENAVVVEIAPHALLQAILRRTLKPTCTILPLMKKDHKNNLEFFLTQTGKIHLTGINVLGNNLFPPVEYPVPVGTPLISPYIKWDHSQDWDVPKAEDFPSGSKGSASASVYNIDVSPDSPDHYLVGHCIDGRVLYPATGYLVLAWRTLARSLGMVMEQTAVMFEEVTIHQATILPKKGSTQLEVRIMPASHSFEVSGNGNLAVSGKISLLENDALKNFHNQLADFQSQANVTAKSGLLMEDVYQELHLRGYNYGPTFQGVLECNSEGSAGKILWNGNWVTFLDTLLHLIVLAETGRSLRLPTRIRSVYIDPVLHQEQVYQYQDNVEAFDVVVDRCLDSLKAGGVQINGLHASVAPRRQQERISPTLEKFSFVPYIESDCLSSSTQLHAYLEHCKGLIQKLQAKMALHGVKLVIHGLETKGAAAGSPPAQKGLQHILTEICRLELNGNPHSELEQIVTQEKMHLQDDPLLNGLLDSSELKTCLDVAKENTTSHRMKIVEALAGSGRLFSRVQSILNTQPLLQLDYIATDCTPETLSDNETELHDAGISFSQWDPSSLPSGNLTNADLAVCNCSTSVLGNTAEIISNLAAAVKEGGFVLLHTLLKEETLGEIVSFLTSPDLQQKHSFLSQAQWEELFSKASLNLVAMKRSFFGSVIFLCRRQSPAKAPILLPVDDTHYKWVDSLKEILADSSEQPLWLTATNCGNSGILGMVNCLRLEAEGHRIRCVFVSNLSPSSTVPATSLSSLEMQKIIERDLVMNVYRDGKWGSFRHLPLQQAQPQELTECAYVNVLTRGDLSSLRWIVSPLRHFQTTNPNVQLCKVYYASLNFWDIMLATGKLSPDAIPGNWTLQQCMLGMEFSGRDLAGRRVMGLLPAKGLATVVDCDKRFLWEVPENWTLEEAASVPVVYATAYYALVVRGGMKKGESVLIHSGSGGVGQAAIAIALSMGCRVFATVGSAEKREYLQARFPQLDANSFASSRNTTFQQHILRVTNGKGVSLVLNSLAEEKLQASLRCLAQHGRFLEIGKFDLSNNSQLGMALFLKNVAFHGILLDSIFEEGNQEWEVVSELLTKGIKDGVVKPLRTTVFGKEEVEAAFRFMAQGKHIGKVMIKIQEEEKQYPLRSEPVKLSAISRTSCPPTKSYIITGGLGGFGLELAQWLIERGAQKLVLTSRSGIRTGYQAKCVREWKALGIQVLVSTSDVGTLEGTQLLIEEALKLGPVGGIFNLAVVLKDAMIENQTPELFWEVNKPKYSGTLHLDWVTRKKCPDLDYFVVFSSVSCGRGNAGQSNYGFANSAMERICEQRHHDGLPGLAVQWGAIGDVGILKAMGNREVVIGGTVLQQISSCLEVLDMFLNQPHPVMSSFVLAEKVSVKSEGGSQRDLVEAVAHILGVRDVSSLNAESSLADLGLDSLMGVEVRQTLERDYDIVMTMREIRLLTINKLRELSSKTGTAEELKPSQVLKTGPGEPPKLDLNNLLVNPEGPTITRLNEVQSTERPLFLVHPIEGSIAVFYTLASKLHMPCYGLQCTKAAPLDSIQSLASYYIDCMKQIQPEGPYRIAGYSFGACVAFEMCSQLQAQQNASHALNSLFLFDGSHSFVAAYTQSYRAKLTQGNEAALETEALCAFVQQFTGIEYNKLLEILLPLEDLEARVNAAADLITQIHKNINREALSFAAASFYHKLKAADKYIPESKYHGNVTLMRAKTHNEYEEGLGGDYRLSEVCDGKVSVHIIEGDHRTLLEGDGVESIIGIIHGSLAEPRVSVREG
Procedure: (§1) The preparation of FAS from chicken liver (Huadu Broiler Corporation, Beijing) was performed as described previously.[24] The amino acid sequence of chicken FAS has 63% identity with the sequence of human enzyme.[25] All animal operations followed the Guidelines for the Care and Use of Laboratory Animals established by the National Research Council (US) Institute for Laboratory Animal Research. The purified FAS was homogenized by polyacrylamide gel electrophoresis in the presence and absence of sodium dodecyl sulfate, respectively.
(§2) The FAS activity was measured at 37 °C by spectrophotometer at 340 nm of NADPH absorption. The overall reaction system contained 100 mM KH2PO4–K2HPO4 buffer, 1 mM EDTA, 1 mM dithiothreitol, 3 μM Ac-CoA, 10 μM Mal-CoA, 35 μM NADPH, and 10 μg FAS in a total volume of 2 ml as previously described.[26,27] The assay for β-ketoacyl reduction activity of FAS was catalyzed by KR containing 100 mM KH2PO4–K2HPO4 buffer, 200 mM ethyl acetoacetate, 35 μM NADPH, and 20 μg FAS in a total volume of 2 ml (pH 7.0).
Reversible inhibition was determined by adding the inhibitor to the reaction system before the reaction was initiated. The activities of FAS in the presence and absence of garcinone E (dissolved in DMSO) were designated as Ai and A0 respectively. The value of Ai/A0 × 100% was defined as the relative activity (R.A.) of FAS. […]

[2] = target: T2, KR (β-ketoacyl reductase) of chicken FAS (Gallus gallus, UniProt P12276); test: Fast-binding inhibition of β-ketoacyl reduction (KR) activity of FAS; format: biochemical; conditions: fast-binding reversible inhibition, 37 °C
T2 construct: tissue Huadu Broiler Corporation, Beijing; host or cells: chicken liver
T2 sequence (P12276 whole entry): as above
Procedure: as §1, §2
(§3) The activity of KR was determined at 37 °C by measuring the change of absorption at 340 nm. The KR reaction mixture (2 ml) contained 40 mM ethyl acetoacetate, 35 μM NADPH, 1 mM EDTA, 1 mM DTT and 10 μg of FAS in 100 mM phosphate buffer, pH 7.0.[28]

[3] = target: T1, chicken FAS (overall reaction); test: Time-dependent (slow-binding irreversible) inactivation of FAS overall reaction; format: biochemical
Procedure: (§4) Assay of time-dependent inhibition activity was carried out as previous described.[13] The FAS solution was mixed with garcinone E and incubated at 25 °C, and then aliquots were taken to measure the remaining activity at the indicated time intervals to obtain the time course. […] The rate constant of FAS inactivation can be calculated from a semi-log plot of the time course, which is based upon the formula ln At/A0 = −kobst. The At/A0 expresses the remaining activity at t time, and kobs is the observed rate constant. Based on earlier studies, the inhibition of FAS activity is due to both fast-binding and time-dependent inhibitions, although sometimes the fast-binding reversible inhibition is not potent enough to affect the enzyme.

[4] = target: T2, KR (β-ketoacyl reductase) of chicken FAS; test: Time-dependent inactivation of KR reaction of FAS; format: biochemical
Procedure: as §3, §4

[5] = target: T1, chicken FAS (overall reaction); test: Enzyme inhibition kinetics (double reciprocal plots, variable substrate); format: biochemical; conditions: for pKi: secondary plot of slopes, read-out: Inhibition constant Kis; for Inhibition constant Kii: secondary plot of intercepts
Description: Possible interference by the inhibitor at each substrate binding site was examined by holding the concentration of the inhibitor at several fixed levels respectively, and increasing one substrate concentration while keeping the concentrations of the other substrates constant. Double reciprocal plots for every concentration of the inhibitor were yielded to estimate the competitive relationship between the variable substrate and inhibitor concentrations. This study is based on fast-binding inhibition.
Inhibition kinetics study was carried out to elucidate the mechanism of the reversible inhibition of FAS by garcinone E. Possible interference by garcinone E at each substrate-binding site was examined by holding the concentration of garcinone E at a constant value, and measuring the effect of increasing one substrate concentration (the concentrations of the other two substrates were fixed) on the initial reaction rate. Double-reciprocal plots of the results (Fig. 3A–C) yielded three families of straight lines, which had different intersections, for three substrates of FAS. […] However, the lines for NADPH (Fig. 3C) intersected on the X axis, from which it was concluded that garcinone E was a typically noncompetitive inhibitor of FAS against NADPH.
Fig. 3 Lineweaver–Burke plots for inhibition of FAS activity by garcinone E. Double reciprocal plots for inhibition of FAS by garcinone E. The activity of the overall reaction of FAS was measured. (A) The concentrations of Mal-CoA and NADPH were fixed at 10 μM and 35 μM, respectively. Ac-CoA was the variable substrate. […] (B) The concentrations of Ac-CoA and NADPH were fixed at 3 μM and 35 μM, respectively. Mal-CoA was the variable substrate. […] (C) The concentrations of Ac-CoA and Mal-CoA were fixed at 3 μM and 10 μM, respectively. NADPH was the variable substrate. […] Each datum was the mean from 2–5 experiments.

chicken FAS = target: T3, chicken FAS (Gallus gallus, UniProt P12276); test: Substrate protection for time-dependent inactivation of FAS; format: biochemical; conditions: 10.0 μM garcinone E
T3 construct: tissue Huadu Broiler Corporation, Beijing; host or cells: chicken liver
T3 sequence (P12276 whole entry): as above
Procedure: as §4
Furthermore, substrate protection for time-dependent inhibition was examined in the measurement of FAS inactivation by garcinone E with 10 μM Ac-CoA, 10 μM Mal-CoA, or 10 μM NADPH, respectively. Inactivation in the same condition but without any substrate was the control. […] Therefore, the substrates of Mal-CoA and NADPH had no obvious protection effect. However, the inactivation was slowed by Ac-CoA.

SMILES: O=C(O[C@@H]1Cc2c(O)cc(O)cc2O[C@@H]1c1cc(O)c(O)c(O)c1)c1cc(O)c(O)c(O)c1 [EGCG, epigallocatechin gallate]
pIC50 (FAS): 4.28

SMILES: C/C=C/C/C=C/CCC(=O)[C@H]1O[C@H]1C(N)=O [cerulenin]
pIC50 (FAS): 4.05

pIC50 [1]: 5.48 | pIC50 [2]: 4.84 | time-dependent (slow-binding irreversible) inhibition of FAS overall reaction, in words [3]: slow-binding irreversible inhibition | fold difference in inactivation rate between overall reaction and KR ([3]; 20.0 μM garcinone E): more than 20 fold | irreversible inhibition on KR, in words [4]: very weak | kobs of FAS inactivation, KR ([4]; 20.0 μM garcinone E, incubated at 25 °C): 0.0004 min⁻¹ | Inhibitory manner ([5]; variable substrate Ac-CoA, Mal-CoA 10 μM, NADPH 35 μM): Competitive | pKi ([5]; variable substrate Ac-CoA): 5.75 | Inhibitory manner ([5]; variable substrate Mal-CoA, Ac-CoA 3 μM, NADPH 35 μM): Mixed competitive and noncompetitive | Inhibition constant Kii ([5]; variable substrate Mal-CoA, binding with enzyme-substrate complex): 5.99 µM | pKi ([5]; variable substrate Mal-CoA): 5.41 | Inhibitory manner ([5]; variable substrate NADPH, Ac-CoA 3 μM, Mal-CoA 10 μM): Noncompetitive | Inhibition constant Kii ([5]; variable substrate NADPH): 2.67 µM | pKi ([5]; variable substrate NADPH): 5.71 | kobs for inactivation of FAS (chicken FAS; no protection): 17.4 10^−3 min^−1 | reduction of apparent rate constant by pre-incubation with substrate (chicken FAS; pre-incubation with Mal-CoA and NADPH): less than 10% | kobs for inactivation of FAS (chicken FAS; protection by 10 μM Ac-CoA): 5.3 10^−3 min^−1 | kobs for inactivation of FAS (chicken FAS; protection by 10 μM Mal-CoA): 16.6 10^−3 min^−1 | kobs for inactivation of FAS (chicken FAS; protection by 10 μM NADPH): 15.9 10^−3 min^−1
SMILES: CC(C)=CCc1c(O)cc2oc3c(CC=C(C)C)c(O)c(O)c(CC=C(C)C)c3c(=O)c2c1O [garcinone E, 2,3,6,8-tetrahydroxy-1,4,7-tris(3-methylbut-2-enyl)-9H-xanthen-9-one]

SMILES: COc1c(O)cc2oc3cc(O)c(CC=C(C)C)c(O)c3c(=O)c2c1CC=C(C)C [α-mangostin]
time-dependent (slow-binding irreversible) inhibition of FAS overall reaction, in words [3]: none of them showed slow-binding inactivation

SMILES: COc1cc2oc3cc(O)c(OC)c(CC=C(C)C)c3c(=O)c2c(O)c1CC=C(C)C [β-mangostin]
time-dependent (slow-binding irreversible) inhibition of FAS overall reaction, in words [3]: none of them showed slow-binding inactivation

SMILES: CC(C)=CCc1c(O)cc2oc3cc(O)c(O)c(CC=C(C)C)c3c(=O)c2c1O [γ-mangostin]
time-dependent (slow-binding irreversible) inhibition of FAS overall reaction, in words [3]: none of them showed slow-binding inactivation
